± gives the standard deviation of the averaged measurements.
Experiments:
Test in all cases: relative viability vs DMSO control (72 h) (fraction); higher = more viable cells
[1] = system: SK-ES-1
In short: (§1)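 Serially diluted compound, 2.5 µl from source plates spanning 10 mM to 0.0002 mM, was added 24 h after sarcoma cell lines were seeded in 384-well plates at densities targeting 80–90% confluence. Plates then sat 72 h at 37 °C, 5% CO2, with 0.1% DMSO vehicle and a 5 µM positive control. Relative viability came from ATPLite as percent growth, averaged over up to triplicate wells, and was rescaled with 1 as full and 0 as none.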

[2] = system: VA-ES-BJ
In short: as §1

[3] = system: SW982
In short: as §1

[4] = system: MES-SA
In short: as §1

[5] = system: A204
In short: as §1

CN(C)C(=O)c1cc2cnc(Nc3ccc(N4CCNCC4)cn3)nc2n1C1CCCC1 [Ribociclib]
relative viability
Details	[1]	[2]	[3]	[4]	[5]
0.00017 µM	1.03 ± 0.064	1.03 ± 0.067	1.03 ± 0.031	0.899 ± 0.018	1.07 ± 0.032
0.00051 µM	1.04 ± 0.049	1.04 ± 0.025	1.03 ± 0.045	0.909 ± 0.044	1.09 ± 0.055
0.00152 µM	1.06 ± 0.042	1.01 ± 0.04	1.04 ± 0.013	0.914 ± 0.028	1.08 ± 0.058
0.00457 µM	1.02 ± 0.058	0.995 ± 0.033	1.0148 ± 0.0007	0.908 ± 0.035	1.09 ± 0.026
0.01372 µM	1.04 ± 0.075	0.988 ± 0.026	1.05 ± 0.04	0.896 ± 0.035	1.05 ± 0.068
0.04115 µM	0.989 ± 0.011	0.985 ± 0.028	1.02 ± 0.069	0.884 ± 0.04	1.05 ± 0.039
0.1235 µM	0.837 ± 0.048	0.931 ± 0.043	0.992 ± 0.075	0.868 ± 0.042	0.967 ± 0.037
0.3704 µM	0.761 ± 0.04	0.869 ± 0.041	1.02 ± 0.014	0.853 ± 0.056	0.907 ± 0.019
1.111 µM	0.659 ± 0.031	0.872 ± 0.038	0.993 ± 0.058	0.817 ± 0.05	0.921 ± 0.059
3.333 µM	0.466 ± 0.024	0.712 ± 0.02	0.788 ± 0.035	0.6876 ± 0.0047	0.795 ± 0.027
10 µM	0.427 ± 0.0091	0.597 ± 0.0071	0.66 ± 0.042	0.598 ± 0.029	0.639 ± 0.035

O=C(/C=C\n1cnc(-c2cc(C(F)(F)F)cc(C(F)(F)F)c2)n1)NNc1cnccn1 [Selinexor]
relative viability
Details	[1]	[2]	[3]	[4]	[5]
0.00017 µM	1.05 ± 0.069	1.1 ± 0.043	1.06 ± 0.043	1.011 ± 0.0019	1.1 ± 0.026
0.00051 µM	1.06 ± 0.027	1.09 ± 0.031	1.07 ± 0.051	0.985 ± 0.019	1.11 ± 0.023
0.00152 µM	1.04 ± 0.027	1.08 ± 0.013	1.08 ± 0.0098	0.971 ± 0.044	1.08 ± 0.021
0.00457 µM	1.05 ± 0.056	1.03 ± 0.015	1.07 ± 0.025	0.965 ± 0.011	1.08 ± 0.015
0.01372 µM	0.953 ± 0.026	0.953 ± 0.012	1.08 ± 0.029	0.911 ± 0.032	0.996 ± 0.014
0.04115 µM	0.515 ± 0.013	0.78 ± 0.021	0.918 ± 0.08	0.808 ± 0.013	0.884 ± 0.059
0.1235 µM	0.0598 ± 0.0042	0.565 ± 0.0094	0.53 ± 0.017	0.4844 ± 0.0023	0.677 ± 0.03
0.3704 µM	0.014 ± 0.0012	0.318 ± 0.036	0.292 ± 0.023	0.342 ± 0.0046	0.441 ± 0.027
1.111 µM	0.0115 ± 0.00044	0.198 ± 0.0082	0.211 ± 0.019	0.255 ± 0.02	0.299 ± 0.015
3.333 µM	0.0084 ± 0.00046	0.187 ± 0.017	0.161 ± 0.0021	0.189 ± 0.0047	0.218 ± 0.043
10 µM	0.013 ± 0.0011	0.165 ± 0.0077	0.177 ± 0.0064	0.1447 ± 0.0012	0.171 ± 0.012

Cc1cc(F)c(C(=O)Nc2cccc(-c3nncn3C(C)C)n2)cc1-n1cnc(C2CC2)c1 [Selonsertib]
relative viability
Details	[1]	[2]	[3]	[4]	[5]
0.00017 µM	1.01 ± 0.11	0.995 ± 0.025	1.05 ± 0.041	0.887 ± 0.034	1.07 ± 0.067
0.00051 µM	1.05 ± 0.05	0.995 ± 0.026	1.05 ± 0.043	0.892 ± 0.021	1.02 ± 0.015
0.00152 µM	1.03 ± 0.034	1.01 ± 0.047	1.07 ± 0.026	0.907 ± 0.03	1.03 ± 0.077
0.00457 µM	1.09 ± 0.015	0.972 ± 0.059	1.05 ± 0.052	0.893 ± 0.0091	1.09 ± 0.053
0.01372 µM	1.08 ± 0.065	0.989 ± 0.039	1.08 ± 0.051	0.895 ± 0.03	1.07 ± 0.034
0.04115 µM	1.03 ± 0.046	0.977 ± 0.039	1.09 ± 0.045	0.93 ± 0.025	1.08 ± 0.028
0.1235 µM	1.03 ± 0.079	0.967 ± 0.039	1.07 ± 0.05	0.928 ± 0.034	1.1 ± 0.052
0.3704 µM	1.01 ± 0.046	0.969 ± 0.011	1.09 ± 0.036	0.912 ± 0.024	1.07 ± 0.034
1.111 µM	0.988 ± 0.078	0.938 ± 0.029	1.09 ± 0.034	0.87 ± 0.024	1.01 ± 0.014
3.333 µM	0.896 ± 0.076	0.918 ± 0.047	1.1 ± 0.013	0.78 ± 0.02	0.802 ± 0.042
10 µM	0.313 ± 0.067	0.848 ± 0.044	1.07 ± 0.068	0.368 ± 0.012	0.389 ± 0.0071

Cn1cnc2c(F)c(Nc3ccc(Br)cc3Cl)c(C(=O)NOCCO)cc21 [Selumetinib]
relative viability
Details	[1]	[2]	[3]	[4]	[5]
0.00017 µM	0.944 ± 0.098	0.9961 ± 0.0092	1.01 ± 0.045	0.871 ± 0.016	1.03 ± 0.058
0.00051 µM	0.961 ± 0.07	0.992 ± 0.022	1.01 ± 0.021	0.89 ± 0.02	1.02 ± 0.068
0.00152 µM	0.951 ± 0.064	0.985 ± 0.0088	1.02 ± 0.042	0.855 ± 0.04	1.01 ± 0.027
0.00457 µM	0.956 ± 0.042	0.964 ± 0.039	1.01 ± 0.032	0.862 ± 0.037	1.055 ± 0.01
0.01372 µM	0.951 ± 0.074	0.947 ± 0.041	0.99 ± 0.018	0.847 ± 0.024	0.988 ± 0.029
0.04115 µM	0.929 ± 0.044	0.877 ± 0.03	0.956 ± 0.034	0.844 ± 0.036	0.977 ± 0.0054
0.1235 µM	0.932 ± 0.05	0.8465 ± 0.0025	0.9336 ± 0.0056	0.754 ± 0.021	0.947 ± 0.065
0.3704 µM	0.925 ± 0.052	0.836 ± 0.051	0.902 ± 0.025	0.779 ± 0.036	0.973 ± 0.013
1.111 µM	0.925 ± 0.064	0.808 ± 0.039	0.876 ± 0.0069	0.76 ± 0.041	0.939 ± 0.032
3.333 µM	0.925 ± 0.078	0.78 ± 0.036	0.835 ± 0.013	0.741 ± 0.047	0.9367 ± 0.0092
10 µM	0.87 ± 0.041	0.742 ± 0.023	0.804 ± 0.041	0.694 ± 0.046	0.811 ± 0.031

CO[C@H]1C[C@@H]2CC[C@@H](C)[C@@](O)(O2)C(=O)C(=O)N2CCCC[C@H]2C(=O)O[C@H]([C@H](C)C[C@@H]2CC[C@@H](OC(=O)C(C)(CO)CO)[C@H](OC)C2)CC(=O)[C@H](C)/C=C(\C)[C@@H](O)[C@@H](OC)C(=O)[C@H](C)C[C@H](C)/C=C/C=C/C=C/1C [Temsirolimus]
relative viability
Details	[1]	[2]	[3]	[4]	[5]
0.00017 µM	0.959 ± 0.019	0.864 ± 0.052	0.921 ± 0.087	0.814 ± 0.042	0.925 ± 0.03
0.00051 µM	0.904 ± 0.031	0.723 ± 0.024	0.828 ± 0.022	0.651 ± 0.03	0.762 ± 0.11
0.00152 µM	0.8013 ± 0.0064	0.577 ± 0.027	0.724 ± 0.025	0.497 ± 0.042	0.622 ± 0.032
0.00457 µM	0.707 ± 0.018	0.547 ± 0.026	0.667 ± 0.032	0.423 ± 0.008	0.551 ± 0.0085
0.01372 µM	0.64 ± 0.06	0.487 ± 0.031	0.657 ± 0.059	0.382 ± 0.022	0.534 ± 0.013
0.04115 µM	0.579 ± 0.012	0.448 ± 0.012	0.657 ± 0.059	0.3571 ± 0.003	0.504 ± 0.019
0.1235 µM	0.52 ± 0.017	0.415 ± 0.0084	0.626 ± 0.045	0.353 ± 0.021	0.476 ± 0.016
0.3704 µM	0.538 ± 0.04	0.42 ± 0.022	0.595 ± 0.057	0.3494 ± 0.0012	0.453 ± 0.013
1.111 µM	0.519 ± 0.017	0.419 ± 0.0095	0.562 ± 0.063	0.343 ± 0.018	0.431 ± 0.012
3.333 µM	0.432 ± 0.024	0.415 ± 0.02	0.473 ± 0.076	0.314 ± 0.015	0.392 ± 0.014
10 µM	0.126 ± 0.034	0.377 ± 0.0045	0.385 ± 0.063	0.223 ± 0.008	0.334 ± 0.011

From the supplement of paper PMC10883282
